12 compounds from patent US10519114B2, “Peptidomimetics and methods of using the same” (The Regents of the University of Michigan, priority 2016, dated 2019) can be followed below.

Experiment [1] concerns the target T1, rat μ (C6-MOR) opioid receptor (Rattus norvegicus, UniProt P33535).
T1 construct: expressed in transfected cells
Description: Radioligand binding assay, [3H]diprenorphine displacement, MOR. The note with it: displacement of 0.2 nM [3H]diprenorphine, C6-MOR membranes; mean ± standard error. Here is the method:
(§1) In Vitro Pharmacology-Cell Lines and Membrane Preparations. All tissue culture reagents were purchased from Gibco Life Sciences (Grand Island, N.Y., U.S.). C6-rat glioma cells stably transfected with a rat μ (C6-MOR) or rat δ (C6-DOR) opioid receptor20 and Chinese hamster ovary (CHO) cells stably expressing a human K (CHO-KOR) opioid receptor21 were used for all in vitro assays. Cells were grown to confluence at 37° C. in 5% CO2 in Dulbecco's modified Eagle medium containing 10% fetal bovine serum and 5% penicillin/streptomycin. Membranes were prepared by washing confluent cells three times with ice cold phosphate buffered saline (0.9% NaCl, 0.61 mM Na2HPO4, 0.38 mM KH2PO4, pH 7.4). Cells were detached from the plates by incubation in warm harvesting buffer (20 mM HEPES, 150 mM NaCl, 0.68 mM EDTA, pH 7.4) and pelleted by centrifugation at 200 g for 3 min. The cell pellet was suspended in ice-cold 50 mM Tris-HCl buffer, pH 7.4, and homogenized with a Tissue Tearor (Biospec Products, Inc., Bartlesville, Okla., U.S.) for 20 s at setting 4. The homogenate was centrifuged at 20 000 g for 20 min at 4° C., and the pellet was rehomogenized in 50 mM Tris-HCl with a Tissue Tearor for 10 s at setting 2, followed by recentrifugation. The final pellet was resuspended in 50 mM Tris-HCl and frozen in aliquots at […]. Protein concentration was determined via Bradford assay using bovine serum albumin as the standard.
(§2) Radioligand Binding Assays. Radioactive compounds were purchased from Perkin-Elmer (Waltham, Mass., U.S.). Opioid ligand binding assays were performed using competitive displacement of 0.2 nM [3H]diprenorphine (250 μCi, 1.85 TBq/mmol) by the test compound from membrane preparations containing opioid receptors. The assay mixture, containing membrane suspension (20 μg protein/tube) in 50 mM Tris-HCl buffer (pH 7.4), [3H]diprenorphine, and various concentrations of test peptide, was incubated at room temperature for 1 h to allow binding to reach equilibrium. The samples were rapidly filtered through Whatman GF/C filters using a Brandel harvester (Brandel, Gaithersburg, Md., U.S.) and washed three times with 50 mM Tris-HCl buffer. The radioactivity retained on dried filters was determined by liquid scintillation counting after saturation with EcoLume liquid scintillation cocktail in a Wallac 1450 MicroBeta (Perkin-Elmer, Waltham, Mass., U.S.). Nonspecific binding was determined using 10 μM naloxone. Inhibitory constant (Ki) values were calculated using nonlinear regression analysis to fit a logistic equation to the competition data using GraphPad Prism, version 5.01, for Windows (GraphPad Software Inc., La Jolla, Calif.). The results presented are the mean±standard error from at least three separate assays performed in duplicate.

The target of experiment [2] is T2, rat δ (C6-DOR) opioid receptor (Rattus norvegicus, UniProt P33533).
T2 construct: expressed in transfected cells
Description: Radioligand binding assay, [3H]diprenorphine displacement, DOR. Conditions: displacement of 0.2 nM [3H]diprenorphine, C6-DOR membranes; mean ± standard error. Here is the method:
as §1, §2

In experiment [3] the target is T3, human κ (CHO-KOR) opioid receptor (Homo sapiens, UniProt P41145).
T3 construct: expressed in transfected cells
Description: Radioligand binding assay, [3H]diprenorphine displacement, KOR. The note with it: displacement of 0.2 nM [3H]diprenorphine, CHO-KOR membranes; mean ± standard error. Here is the method:
as §1, §2

Experiment [4] deals with T1, rat μ (C6-MOR) opioid receptor. Description: Stimulation of [35S]GTPγS binding, MOR. Format: biochemical. Conditions: for Emax / % stimulation MOR: [35S]GTPγS maximal stimulation compared with 10 μM standard DAMGO. Here is the method: as §1
(§3) Stimulation of [^35S]GTPyS Binding. Agonist stimulation of [35S]guanosine 5′-O-[γ-thio]triphosphate ([^35S]GTPγS, 1250 Ci, 46.2 TBq/mmol) binding was measured as described previously Briefly, membranes (10-20 μg of protein/tube) were incubated 1 h at room temperature in GTPyS buffer (50 mM Tris-HCl, 100 mM NaCl, 5 mM MgCl2, pH 7.4) containing 0.1 nM [^35S]GTPγS, 30 μM guanosine diphosphate (GDP), and varying concentrations of test peptides. Peptide stimulation of [^35S]GTPyS was compared with 10 μM standard compounds [D-Ala^2,N-MePhe^4,Gly-ol]encephalin (DAMGO) at MOR, D-Pen^2,5-enkephalin (DPDPE) at DOR, or […] at KOR. The reaction was terminated by rapidly filtering through GF/C filters and washing 10 times with GTPyS buffer, and retained radioactivity was measured as described above. The results presented are the mean±standard error from at least three separate assays performed in duplicate; maximal stimulation was determined using nonlinear regression analysis with GraphPad Prism (GraphPad Software Inc., La Jolla, Calif.).
In general terms: GTPγS is a poorly hydrolysed GTP analogue; its binding reports G protein activation.

The target in experiment [5] is T2, rat δ (C6-DOR) opioid receptor. Description: Stimulation of [35S]GTPγS binding, DOR. Format: biochemical. The note with it: for EC50 / EC50 (nm) DOR: [35S]GTPγS binding, C6-DOR membranes, mean ± standard error; for Emax / % stimulation DOR: [35S]GTPγS maximal stimulation compared with 10 μM standard DPDPE. The protocol:
as §1, §3

Experiment [6] deals with T3, human κ (CHO-KOR) opioid receptor. Description: Stimulation of [35S]GTPγS binding, KOR. Format: biochemical. Here is the method:
as §1, §3

Where [7] appears, read: [35S]GTPγS binding, C6-MOR membranes, mean ± standard error.

SMILES strings stand for the structures.

T2 sequence (P33533 whole entry): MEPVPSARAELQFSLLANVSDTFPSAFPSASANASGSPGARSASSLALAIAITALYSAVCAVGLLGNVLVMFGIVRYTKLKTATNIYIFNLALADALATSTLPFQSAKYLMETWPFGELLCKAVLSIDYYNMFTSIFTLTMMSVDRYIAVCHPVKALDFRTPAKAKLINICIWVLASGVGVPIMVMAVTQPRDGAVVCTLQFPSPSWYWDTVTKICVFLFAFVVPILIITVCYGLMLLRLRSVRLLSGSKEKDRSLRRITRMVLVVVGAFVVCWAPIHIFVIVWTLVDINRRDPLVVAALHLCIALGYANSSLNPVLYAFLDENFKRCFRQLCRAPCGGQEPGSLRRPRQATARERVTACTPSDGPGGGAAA
T1 sequence (P33535 whole entry): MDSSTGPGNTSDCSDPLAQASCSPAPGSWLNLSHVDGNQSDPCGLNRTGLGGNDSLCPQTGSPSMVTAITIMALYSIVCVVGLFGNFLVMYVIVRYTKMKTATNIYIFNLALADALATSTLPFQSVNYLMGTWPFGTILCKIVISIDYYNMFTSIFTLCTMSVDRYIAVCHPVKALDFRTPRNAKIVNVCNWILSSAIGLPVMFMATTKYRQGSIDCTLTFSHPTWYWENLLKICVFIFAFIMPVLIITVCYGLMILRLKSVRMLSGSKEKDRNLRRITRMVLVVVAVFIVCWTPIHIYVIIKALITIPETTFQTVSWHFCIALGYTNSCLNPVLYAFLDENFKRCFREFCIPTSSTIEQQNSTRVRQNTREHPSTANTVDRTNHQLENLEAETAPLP
T3 sequence (P41145 whole entry): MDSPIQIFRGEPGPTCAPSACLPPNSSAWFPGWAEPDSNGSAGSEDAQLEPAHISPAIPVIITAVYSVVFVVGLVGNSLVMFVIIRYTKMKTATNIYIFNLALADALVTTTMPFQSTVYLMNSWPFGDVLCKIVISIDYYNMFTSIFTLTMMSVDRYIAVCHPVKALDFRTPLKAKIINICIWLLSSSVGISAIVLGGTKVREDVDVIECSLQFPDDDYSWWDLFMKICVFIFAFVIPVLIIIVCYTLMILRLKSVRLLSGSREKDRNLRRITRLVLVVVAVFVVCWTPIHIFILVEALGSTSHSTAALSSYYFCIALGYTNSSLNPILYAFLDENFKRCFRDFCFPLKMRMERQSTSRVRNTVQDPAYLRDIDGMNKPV

For orientation: Ki means a dissociation constant, usually derived from enzyme kinetics or from competition with a known ligand. Broadly, the EC50 is the midpoint of the concentration-response curve. A word on the Emax: it is the size of the effect at its maximum, as opposed to the concentration needed. For `Cc1cc(O)cc(C)c1C[C@H](N)C(=O)N[C@H]1CCNc2ccc(Oc3ccccc3)cc21` [Compound 1018], the Ki came out at 41.3 ± 6.34 nM in experiment [1], 277 ± 47.4 nM in experiment [2] and 494 nM in experiment [3]. The EC50 in experiment [4] (setting [7]) was 1300 nM; in experiment [5], 2000 nM. In addition, the results for the Emax in experiment [4] and in experiment [5] were 16.6 ± 16.6% and 19.6%, respectively.
As for `CC(=O)N1CC[C@H](NC(=O)[C@@H](N)Cc2c(C)cc(O)cc2C)c2cc(Oc3ccccc3)ccc21` [Compound 1020], the Ki turned out to be 6.25 ± 1.39 nM in experiment [1], 92.9 ± 15.1 nM in experiment [2] and 787 nM in experiment [3]. Moreover, the EC50 in experiment [4] (setting [7]) was found to be 598 ± 282 nM; in experiment [5], 204 nM. In addition, the Emax in experiment [4] stood at 60.4 ± 2.04%; in experiment [5], 16%.
For `COc1cc(Cl)c(C[C@H](N)C(=O)N[C@@H]2CCNc3ccc(Cc4ccccc4)cc32)c(Cl)c1` [Compound 1021], the results for the Ki in experiment [1], in experiment [2] and in experiment [3] were 38.1 ± 5.83 nM, 2700 nM and 1210 nM, respectively. The response in experiment [4] (setting [7]) was half-maximal at 1390 ± 480 nM (EC50). In experiment [4], this compound gave an Emax of 34.8 ± 2.52%.
As for `Cc1cc(O)cc(C)c1C[C@H](N)C(=O)N[C@@H]1CCNc2ccc(C(c3ccccc3)c3ccccc3)cc21` [Compound 1022], the values for the Ki in experiment [1], in experiment [2] and in experiment [3] were 0.2 ± 0.02 nM, 2.29 ± 0.36 nM and 6.91 ± 0.21 nM, respectively. In addition, the EC50 in experiment [4] (setting [7]) came to 12.5 ± 8.76 nM. Besides, the Emax in experiment [4] was 24.5 ± 0.29%; in experiment [5] it was 0%.
Consider `Cc1cc(O)cc(C)c1C[C@H](N)C(=O)N[C@@H]1CCNc2cc(Cc3ccccc3)ccc21` [Compound 1023], for which the values for the inhibition constant (Ki) in experiment [1], in experiment [2] and in experiment [3] were 0.78 ± 0.27 nM, 25.8 ± 1.61 nM and 91.6 nM, respectively. The EC50 in experiment [4] (setting [7]) was determined as 25.4 ± 22.2 nM. The compound further displayed an Emax in experiment [4] of 18.1 ± 4.92%. Moreover, in experiment [5], the “EC50 (nm) DOR” value was “dns”. For the same compound, the “% stimulation DOR” value in experiment [5] is “dns”.
Consider `Cc1cc(O)cc(C)c1C[C@H](N)C(=O)N[C@H]1CCNc2cc(Cc3ccccc3)ccc21` [Compound 1024], for which the results for the Ki in experiment [1], in experiment [2] and in experiment [3] were 21.1 ± 11.9 nM, 295 ± 108 nM and 1030 nM, respectively. Also, in experiment [4] (setting [7]), the “EC50 (nm) MOR” value is “dns”. For the same compound, the “% stimulation MOR” value in experiment [4] is given as “dns”. For the same compound, in experiment [5], the “EC50 (nm) DOR” value is recorded as “dns”. Moreover, the “% stimulation DOR” value in experiment [5] is recorded as “dns”.
On to `Cc1cc(O)cc(C)c1C[C@H](N)C(=O)N[C@@H]1CCNc2ccc(CN3CCNCC3)cc21` [Compound 1059], for which the Ki in experiment [1] turned out to be 16.6 ± 8.63 nM; in experiment [2] it was 1560 ± 288 nM; in experiment [3], 11.7 ± 1.56 nM. The same compound returned an EC50 in experiment [4] (setting [7]) of 90.5 ± 73.2 nM. Also, the “% stimulation MOR” value in experiment [4] was “dns”.
For the compound `Cc1cc(O)cc(C)c1C[C@H](N)C(=O)N[C@@H]1CCNc2ccc(CN3CCC4(CCCCC4)C3)cc21` [Compound 1105], the Ki in experiment [1] was found to be 1.14 nM; in experiment [2], 14.1 nM; in experiment [3], 1.66 nM.
For `Cc1cc(O)cc(C)c1C[C@H](N)C(=O)N[C@@H]1CCNc2ccc(CN3CCCC4(CCCCC4)CC3)cc21` [Compound 1106], the Ki was 0.54 nM in experiment [1], 17 nM in experiment [2] and 3.08 nM in experiment [3].
Turning to `CCCc1cc(Cc2ccccc2)cc2c1N(C(C)=O)CC[C@H]2NC(=O)[C@@H](N)Cc1c(C)cc(O)cc1C` [Compound 1107], the Ki is 0.35 nM in experiment [1], 1.95 nM in experiment [2] and 32.7 nM in experiment [3].
For the compound `CC(=O)N1CC[C@@H](NC(=O)[C@@H](N)Cc2c(C)cc(O)cc2C)c2cc(Cc3ccccc3)cc(Br)c21` [Compound 1108], the Ki in experiment [1] turned out to be 0.49 nM; in experiment [2], 1.35 nM; in experiment [3] it was 33.3 nM.
On to `Cc1cc(O)cc(C)c1C[C@H](N)C(=O)N[C@@H]1CCC(C)(C)c2ccc(Cc3ccccc3)cc21` [Compound 1122], for which the figures for the Ki in experiment [1] and in experiment [2] were 0.36 ± 0.08 nM and 6.5 ± 0.66 nM, respectively. The EC50 in experiment [4] (setting [7]) was found to be 16 ± 4.74 nM; in experiment [5] it was 1090 ± 654 nM; in experiment [6] ([35S]GTPγS binding, CHO-KOR membranes, mean ± standard error), 2100 nM. Also, the Emax in experiment [4] came out at 75.4 ± 4.06%; in experiment [5], 16 ± 2.78%; in experiment [6] ([35S]GTPγS maximal stimulation compared with 10 μM standard U-69,593), 77.8%.
